In ChEMBL document CHEMBL1201862, “PubChem BioAssay data set” (2004):
Structures can show the parent of a compound that is named as a salt.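 Interpolation was linear, between the two tested concentrations surrounding the appropriate level; five concentrations were tested over 48 hours in 96-well plates. Abbreviation: GI50, concentration required for 50% inhibition of growth.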 Activity calls are given as the source filed them. No stated cut-off is given here; in the data, active = GI50 up to about 1.1 µM and inactive = higher.

Experiments:
Assay in all cases: growth of human tumour cells (NCI), 48 h
SF-539 = system: SF-539
OVCAR-5 = system: OVCAR-5
TK-10 = system: TK-10
K562 = system: K562
A549 = system: A549
NCI-H460 = system: NCI-H460
NCI-H23 = system: NCI-H23
SF-295 = system: SF-295
COLO 205 = system: COLO 205
HT-29 = system: HT-29
A498 = system: A498
HCC 2998 = system: HCC 2998
HOP-92 = system: HOP-92
OVCAR-3 = system: OVCAR-3
EKVX = system: EKVX
RPMI-8226 = system: RPMI-8226
SNB-75 = system: SNB-75
SK-MEL-28 = system: SK-MEL-28
RXF 393 = system: RXF 393

Measured: GI50

CCOC(=O)C12CCCC1(O)N(NC(=O)c1ccccc1)C(C)=C2C(=O)OC (stereo not given)
inactive: SF-539 > 100 µM | OVCAR-5 > 100 µM | TK-10 > 100 µM | K562 > 100 µM | A549 > 100 µM | NCI-H460 > 100 µM | NCI-H23 > 100 µM | SF-295 > 100 µM | COLO 205 > 100 µM | HT-29 > 100 µM | A498 > 100 µM | HCC 2998 > 100 µM | HOP-92 > 100 µM | OVCAR-3 > 100 µM | EKVX > 100 µM | RPMI-8226 > 100 µM

Clc1cc(-c2ccccc2)nc2ccccc12
inactive: SF-539 51.4 µM | OVCAR-5 > 100 µM | TK-10 34 µM | K562 37.8 µM | A549 35.6 µM | NCI-H460 35.5 µM | SNB-75 28.6 µM | NCI-H23 51.6 µM | SF-295 38.4 µM | COLO 205 19.5 µM | HT-29 32.1 µM | A498 33 µM | SK-MEL-28 57.5 µM | RXF 393 31.7 µM | HOP-92 36.8 µM | OVCAR-3 49.9 µM | EKVX 31.9 µM | RPMI-8226 23.7 µM

CCOC(=O)Nc1nn[nH]c1Cl
inactive: SF-539 > 100 µM | OVCAR-5 > 100 µM | TK-10 > 100 µM | K562 > 100 µM | A549 > 100 µM | NCI-H460 > 100 µM | SNB-75 > 100 µM | NCI-H23 > 100 µM | COLO 205 > 100 µM | HT-29 > 100 µM | A498 > 100 µM | SK-MEL-28 > 100 µM | RXF 393 > 100 µM | HCC 2998 > 100 µM | OVCAR-3 > 100 µM | EKVX > 100 µM | RPMI-8226 > 100 µM

Nc1nc(NCCO)c(N=O)c(=O)[nH]1
inactive: SF-539 > 100 µM | OVCAR-5 > 100 µM | TK-10 > 100 µM | K562 > 100 µM | A549 > 100 µM | NCI-H460 > 100 µM | SNB-75 > 100 µM | SF-295 > 100 µM | COLO 205 > 100 µM | HT-29 > 100 µM | A498 > 100 µM | SK-MEL-28 > 100 µM | RXF 393 > 100 µM | HOP-92 > 100 µM | OVCAR-3 > 100 µM | EKVX > 100 µM | RPMI-8226 > 100 µM

CC(NNC(=O)c1ccc[n+]([BH2-]C#N)c1)c1ccccc1 (stereo not given)
inactive: SF-539 > 100 µM | OVCAR-5 > 100 µM | TK-10 > 100 µM | K562 > 100 µM | NCI-H460 > 100 µM | SNB-75 > 100 µM | NCI-H23 > 100 µM | SF-295 > 100 µM | COLO 205 > 100 µM | HT-29 > 100 µM | SK-MEL-28 > 100 µM | RXF 393 > 100 µM | HCC 2998 > 100 µM | HOP-92 > 100 µM | OVCAR-3 > 100 µM | EKVX > 100 µM

COC1=CC23CCCN2CCc2cc4c(cc2C3C1O)OCO4 (stereo not given)
inactive: SF-539 40.6 µM | OVCAR-5 > 100 µM | TK-10 > 100 µM | K562 > 10 µM | A549 36.4 µM | NCI-H460 36 µM | SNB-75 78.2 µM | NCI-H23 62.8 µM | SF-295 36.1 µM | COLO 205 24.5 µM | HT-29 39.4 µM | A498 59.3 µM | SK-MEL-28 > 100 µM | HCC 2998 70.3 µM | HOP-92 > 100 µM | EKVX 52.5 µM

Cc1cc(C)nc(NS(=O)(=O)c2ccc(NC(=O)c3ccc(Cl)c4c(Nc5ccc(S(=O)(=O)Nc6nc(C)cc(C)n6)cc5)c5ccccc5nc34)cc2)n1
inactive: SF-539 2.22 µM | OVCAR-5 15.7 µM | TK-10 33.4 µM | K562 9.95 µM | A549 22.8 µM | NCI-H460 17 µM | SNB-75 21.3 µM | NCI-H23 3.75 µM | SF-295 25.4 µM | COLO 205 15.9 µM | HT-29 31.7 µM | A498 23.8 µM | SK-MEL-28 4.28 µM | RXF 393 2.16 µM | HOP-92 2.08 µM | OVCAR-3 29.2 µM | EKVX 48.1 µM | RPMI-8226 3.72 µM

COc1ccc2[nH]c3c(cnn4cnnc34)c2c1
inactive: SF-539 > 100 µM | OVCAR-5 > 100 µM | TK-10 > 100 µM | K562 > 100 µM | A549 > 100 µM | NCI-H460 > 100 µM | SNB-75 > 100 µM | NCI-H23 > 100 µM | SF-295 > 100 µM | COLO 205 > 100 µM | HT-29 > 100 µM | SK-MEL-28 > 100 µM | RXF 393 > 100 µM | HCC 2998 > 100 µM | HOP-92 > 100 µM | OVCAR-3 > 100 µM | EKVX 23.3 µM | RPMI-8226 > 100 µM

Clc1nc(NCCc2ccccc2)c2ncn(-c3ccccc3)c2n1
inactive: OVCAR-5 37.9 µM | TK-10 21.1 µM | K562 25.5 µM | A549 26.4 µM | NCI-H460 15.3 µM | SNB-75 18 µM | NCI-H23 25.6 µM | SF-295 25.3 µM | COLO 205 23.2 µM | HT-29 16.2 µM | A498 17.3 µM | SK-MEL-28 33.3 µM | RXF 393 24.8 µM | HCC 2998 17.1 µM | OVCAR-3 25.2 µM | EKVX 22.5 µM | RPMI-8226 18.5 µM

COC(=O)C1=CO[C@@H](C)[C@@H]2Cn3ccc4c5ccccc5nc-4c3C[C@H]12 [ALSTONINE HYDROCHLORIDE]
inactive: SF-539 > 100 µM | OVCAR-5 > 100 µM | TK-10 > 100 µM | K562 55.2 µM | A549 > 100 µM | NCI-H460 > 100 µM | SNB-75 > 100 µM | NCI-H23 > 100 µM | SF-295 > 100 µM | COLO 205 > 100 µM | HT-29 > 100 µM | A498 > 100 µM | SK-MEL-28 > 100 µM | RXF 393 > 100 µM | HOP-92 92.9 µM | OVCAR-3 87.1 µM | EKVX > 100 µM | RPMI-8226 84.3 µM

O=c1[nH]nc(Cc2ccccc2)n1/N=C/c1cccs1
inactive: SF-539 > 100 µM | OVCAR-5 > 100 µM | K562 > 100 µM | A549 > 100 µM | NCI-H460 > 100 µM | SNB-75 > 100 µM | NCI-H23 > 100 µM | SF-295 > 100 µM | COLO 205 > 100 µM | HT-29 > 100 µM | A498 16 µM | SK-MEL-28 > 100 µM | RXF 393 35.2 µM | HCC 2998 > 100 µM | OVCAR-3 > 100 µM | EKVX > 100 µM | RPMI-8226 47.1 µM

Cc1ccccc1NC(=O)C(=O)Cc1cnc2ccccc2n1
inactive: SF-539 > 100 µM | OVCAR-5 > 100 µM | TK-10 > 100 µM | K562 > 100 µM | A549 > 100 µM | NCI-H460 > 100 µM | NCI-H23 > 100 µM | SF-295 > 100 µM | COLO 205 > 100 µM | HT-29 > 100 µM | A498 > 100 µM | SK-MEL-28 > 100 µM | HCC 2998 > 100 µM | HOP-92 > 100 µM | OVCAR-3 > 100 µM | EKVX > 100 µM | RPMI-8226 > 100 µM
